Data from US20260209288A1, “PEPTIDES FOR REGULATING GLUCOSE” (Cooke Aquaculture Inc., priority 2019, published 2026).

Columns and labels:
L6 skeletal muscle cells = experiment: Glucose uptake experiments in L6 skeletal muscle cells (2-deoxy-[3H]glucose); assay type: cell-based
Experimental: Glucose uptake experiments were conducted as described by Roblet 2013. L6 skeletal muscle cells were grown in an a-minimum essential medium (a-MEM) containing 2% (v/v) fetal bovine serum (GBS) in an atmosphere of 5% CO2 at 37° C. [Tremblay 2001]. Cells were plated at 600,000 cells/plate in 24-well plates to obtain about 25,000 cells/mL. The cells were incubated 7 days, to reach their complete differentiation to myotubes (7 days post-plating). L6 myotubes were deprived of GBS for 3 h, with a a-MEM containing 0% of GBS. Then, the cells were incubated for 75 minutes, with 10 μl of EDUF fractions at a concentration of 1 μg/mL and 1 ng/ml. Finally, insulin was added (10 μl at 1.10-5M) for 45 min. Experiments were repeated 9 times, and each repetition was run in triplicate. After experimental treatments, cells were rinsed once with 37° C. HEPES-buffered solution (20 mM HEPES, pH 7.4, 140 mM NaCl, 5 mM KCl, 2.5 mM MgSO4, and 1 mM CaCl2)) and were subsequently incubated in HEPES-buffered solution containing 10 µM 2-deoxyglucose and 0.3 μCi/mL 2-deoxy-[3H] glucose for 8 minutes. Then, the cells were rinsed three times with 0.9% NaCl solution at 4° C. and then frozen. The next day, the cells were disrupted by adding 500 μl of a 50 mM NaOH solution. The radioactivity was determined by scintillation.

FAO rat hepatocytes = experiment: Hepatic glucose production experiments in FAO cells; assay type: cell-based
Experimental: Hepatic glucose production experiments were conducted as described by Chevrier et al, (2015). Briefly, FAO rat hepatocytes were grown and maintained in monolayer culture in Roswell Park Memorial Institute medium (RPMI) containing 10% FBS in an atmosphere of 5% CO2 at 37° C. Cells were plated at 4.10^6 cells/plate. […] […] Glucose production was measured in the medium by using the Amplex Red Glucose/Glucose Oxidase Assay kit (Invitrogen). Results shown are the mean response of at least 6 independent experiments realized in triplicate.

Substance | glucose uptake, dose-response effect (L6 skeletal muscle cells; IPVE at 1 ng/ml) | glucose uptake, dose-response effect (L6 skeletal muscle cells; IPVE at 10 ng/ml) | Bioactivity (L6 skeletal muscle cells; Table 1, identified peptides, glucose uptake) | nature of the glucose uptake response (L6 skeletal muscle cells; concentrations from 1 μg/mL to 10 μg/mL as printed) | glucose uptake, dose-response effect (L6 skeletal muscle cells; highest concentrations tested (>10 ng/ml)) | enhancement of the glucose uptake (L6 skeletal muscle cells; in the presence of insulin, compared to the insulin control (P=0.016)) [%] | glucose uptake, dose-response effect (L6 skeletal muscle cells; lowest concentrations tested (<100 μg/mL)) | Bioactivity (FAO rat hepatocytes; Table 1, identified peptides, hepatic glucose production) | decrease in HGP (hepatic glucose production) (FAO rat hepatocytes; basal condition) [%] | decrease of the HGP (hepatic glucose production) (FAO rat hepatocytes; insulin condition: peptide incubated with insulin at 0.1 nm, compared to insulin at 0.1 nm) [%]
IPVE: synthetic peptide of amino acid sequence IPVE, identified from salmon protein hydrolysate; increases glucose uptake | increase the bioactivity | increase the bioactivity | Increases glucose uptake | dose-dependent | no effect on the glucose uptake | 17 | no effect on the glucose uptake | – | – | –
VAPEEHPTL | – | – | – | – | – | – | – | Decreases hepatic glucose production | 20 | 18
